Measurements reported in patent US12030878B2 (BRISTOL-MYERS SQUIBB COMPANY, priority 2017, dated 2024).
pIC50: −log10 of the molar value.

Experiments:
Format in all cases: cell-based
[1] = biological target: T1, human TLR9 (Homo sapiens, UniProt Q9NR96); assay: TLR9 inhibition reporter assay (HEK-Blue SEAP); conditions: HEK-Blue cells overexpressing human TLR9, stimulated with ODN2006 5 nM, 22 hour incubation
T1 construct: host or cells: HEK-Blue cells
T1 sequence (Q9NR96 26-1032): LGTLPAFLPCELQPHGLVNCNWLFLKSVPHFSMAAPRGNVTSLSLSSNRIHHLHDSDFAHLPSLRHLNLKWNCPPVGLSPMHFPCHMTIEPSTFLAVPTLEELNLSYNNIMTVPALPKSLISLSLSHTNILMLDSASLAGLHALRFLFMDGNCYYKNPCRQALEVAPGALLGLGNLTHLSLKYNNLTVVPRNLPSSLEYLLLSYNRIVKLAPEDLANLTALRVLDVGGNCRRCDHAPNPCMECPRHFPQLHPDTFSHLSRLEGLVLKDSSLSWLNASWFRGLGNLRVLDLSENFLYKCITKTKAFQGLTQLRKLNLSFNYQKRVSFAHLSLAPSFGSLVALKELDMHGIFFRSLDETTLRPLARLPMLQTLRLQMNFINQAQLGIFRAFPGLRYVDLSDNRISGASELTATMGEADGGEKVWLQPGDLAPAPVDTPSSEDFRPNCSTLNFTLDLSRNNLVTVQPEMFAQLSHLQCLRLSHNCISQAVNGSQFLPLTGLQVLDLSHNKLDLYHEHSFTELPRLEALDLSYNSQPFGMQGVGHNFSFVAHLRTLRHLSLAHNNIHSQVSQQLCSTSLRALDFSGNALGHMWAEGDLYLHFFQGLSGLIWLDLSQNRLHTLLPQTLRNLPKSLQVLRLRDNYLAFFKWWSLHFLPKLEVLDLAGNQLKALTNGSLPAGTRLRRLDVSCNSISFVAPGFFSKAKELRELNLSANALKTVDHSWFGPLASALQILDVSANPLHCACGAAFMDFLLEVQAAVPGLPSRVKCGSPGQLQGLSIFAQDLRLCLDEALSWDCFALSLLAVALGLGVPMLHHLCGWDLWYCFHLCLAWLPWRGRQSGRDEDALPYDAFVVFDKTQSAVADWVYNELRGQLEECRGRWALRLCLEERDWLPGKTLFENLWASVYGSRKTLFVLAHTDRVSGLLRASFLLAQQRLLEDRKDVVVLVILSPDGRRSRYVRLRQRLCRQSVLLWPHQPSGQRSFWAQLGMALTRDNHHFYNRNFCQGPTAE
Description: (§1) TLR7/8/9 Inhibition Reporter Assays
(§2) HEK-Blue™-cells (Invivogen) overexpressing human TLR7, TLR8 or TLR9 receptors were used for screening inhibitors of these receptors using an inducible SEAP (secreted embryonic alkaline phosphatase) reporter gene under the control of the IFN-β minimal promoter fused to five NF-κB and AP-1-binding sites. Briefly, cells are seeded into Greiner 384 well plates (15000 cells per well for TLR7, 20.000 for TLR8 and 25,000 for TLR9) and then treated with test compounds in DMSO to yield a final dose response concentration range of 0.05 nM-50 μM. After a 30 minute compound pre-treatment at room temperature, the cells are then stimulated with a TLR7 ligand (gardiquimod at a final concentration of 7.5 μM), TLR8 ligand (R848 at a final concentration of 15.9 μM) or TLR9 ligand (ODN2006 at a final concentration of 5 nM) to activate NF-κB and AP-1 which induce the production of SEAP. After a 22 hour incubation at 37° C., 5% CO2, SEAP levels are determined with the addition of HEK-Blue™ Detection reagent (Invivogen), a cell culture medium that allows for detection of SEAP, according to manufacturer's specifications. The percent inhibition is determined as the % reduction in the HEK-Blue signal present in wells treated with agonist plus DMSO alone compared to wells treated with a known inhibitor.

[2] = biological target: T2, human TLR8 (Homo sapiens, UniProt Q9NR97); assay: TLR8 inhibition reporter assay (HEK-Blue SEAP); conditions: HEK-Blue cells overexpressing human TLR8, stimulated with R848 15.9 μM, 22 hour incubation
T2 construct: host or cells: HEK-Blue cells
T2 sequence (Q9NR97 27-1041): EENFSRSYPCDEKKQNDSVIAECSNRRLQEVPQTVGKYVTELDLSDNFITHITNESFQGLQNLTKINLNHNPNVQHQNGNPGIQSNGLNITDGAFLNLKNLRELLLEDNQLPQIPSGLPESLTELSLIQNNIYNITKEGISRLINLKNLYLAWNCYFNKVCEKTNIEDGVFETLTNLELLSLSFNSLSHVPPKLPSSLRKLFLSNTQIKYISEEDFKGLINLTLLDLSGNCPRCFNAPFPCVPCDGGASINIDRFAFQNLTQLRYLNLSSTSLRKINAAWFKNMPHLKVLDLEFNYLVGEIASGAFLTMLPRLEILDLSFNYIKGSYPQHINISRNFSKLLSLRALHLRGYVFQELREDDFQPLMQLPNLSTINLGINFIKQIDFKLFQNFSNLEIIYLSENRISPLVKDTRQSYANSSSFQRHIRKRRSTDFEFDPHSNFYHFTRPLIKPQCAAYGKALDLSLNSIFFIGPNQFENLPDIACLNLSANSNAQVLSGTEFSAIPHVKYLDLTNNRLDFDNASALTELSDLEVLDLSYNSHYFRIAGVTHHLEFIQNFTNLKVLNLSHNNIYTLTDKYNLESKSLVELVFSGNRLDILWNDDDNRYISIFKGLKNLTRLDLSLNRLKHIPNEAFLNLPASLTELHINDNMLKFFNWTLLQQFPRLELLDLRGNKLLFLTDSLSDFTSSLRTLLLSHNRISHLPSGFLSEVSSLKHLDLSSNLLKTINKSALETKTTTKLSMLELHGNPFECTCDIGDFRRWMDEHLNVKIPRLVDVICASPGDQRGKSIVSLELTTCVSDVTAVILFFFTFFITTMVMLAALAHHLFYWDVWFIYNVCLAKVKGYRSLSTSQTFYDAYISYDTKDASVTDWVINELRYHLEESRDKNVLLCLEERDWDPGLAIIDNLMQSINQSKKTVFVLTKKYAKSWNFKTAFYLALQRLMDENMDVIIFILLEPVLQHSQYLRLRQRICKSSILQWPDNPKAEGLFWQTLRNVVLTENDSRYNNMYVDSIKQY
Description: as §1, §2

[3] = biological target: T3, human TLR7 (Homo sapiens, UniProt Q9NYK1); assay: TLR7 inhibition reporter assay (HEK-Blue SEAP); conditions: HEK-Blue cells overexpressing human TLR7, stimulated with gardiquimod 7.5 μM, 22 hour incubation
T3 construct: host or cells: HEK-Blue cells
T3 sequence (Q9NYK1 27-1049): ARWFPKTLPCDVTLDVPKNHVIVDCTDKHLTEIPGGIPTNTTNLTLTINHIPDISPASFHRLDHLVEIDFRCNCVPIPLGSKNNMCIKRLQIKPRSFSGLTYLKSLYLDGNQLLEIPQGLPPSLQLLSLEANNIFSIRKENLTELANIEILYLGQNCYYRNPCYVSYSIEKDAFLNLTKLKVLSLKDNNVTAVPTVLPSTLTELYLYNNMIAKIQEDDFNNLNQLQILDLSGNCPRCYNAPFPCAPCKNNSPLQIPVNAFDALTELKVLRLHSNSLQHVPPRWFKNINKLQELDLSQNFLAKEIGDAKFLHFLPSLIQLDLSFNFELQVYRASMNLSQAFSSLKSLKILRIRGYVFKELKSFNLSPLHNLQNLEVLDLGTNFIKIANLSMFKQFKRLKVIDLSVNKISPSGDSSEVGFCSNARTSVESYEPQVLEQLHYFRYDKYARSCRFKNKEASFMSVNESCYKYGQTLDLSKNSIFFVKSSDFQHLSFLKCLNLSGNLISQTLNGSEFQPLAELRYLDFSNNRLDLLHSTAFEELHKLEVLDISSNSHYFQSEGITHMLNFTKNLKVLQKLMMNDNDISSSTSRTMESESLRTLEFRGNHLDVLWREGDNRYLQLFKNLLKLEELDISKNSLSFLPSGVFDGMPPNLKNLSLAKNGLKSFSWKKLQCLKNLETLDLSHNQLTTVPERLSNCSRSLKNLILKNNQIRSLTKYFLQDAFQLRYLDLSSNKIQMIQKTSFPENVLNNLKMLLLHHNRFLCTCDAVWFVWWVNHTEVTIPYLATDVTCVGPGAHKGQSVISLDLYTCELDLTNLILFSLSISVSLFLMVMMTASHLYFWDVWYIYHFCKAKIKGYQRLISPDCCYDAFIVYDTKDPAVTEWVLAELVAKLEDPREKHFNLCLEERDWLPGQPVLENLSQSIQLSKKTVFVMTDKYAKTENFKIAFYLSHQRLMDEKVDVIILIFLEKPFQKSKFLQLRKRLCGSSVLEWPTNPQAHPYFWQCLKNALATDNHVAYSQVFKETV
Description: as §1, §2

Cc1cc(-c2[nH]c3ccc(OCC4CCN(CC(=O)N(C)C)CC4)cc3c2C(C)C)cn2ncnc12 [Example 86, 2-(4-(((3-isopropyl-2-(8-methyl-[1,2,4]triazolo[1,5-a]pyridin-6-yl)-1H-indol-5-yl)oxy)methyl)piperidin-1-yl)-N,N-dimethylacetamide] showed a pIC50 [1] of 5.36, a pIC50 [2] of 8.55 and a pIC50 [3] of 9.40.

Cc1cc(-c2[nH]c3ccc(O[C@@H]4CCN(C)C4)cc3c2C(C)C)ccn1 [Example 193, (R)-3-isopropyl-2-(2-methylpyridin-4-yl)-5-((1-methylpyrrolidin-3-yl)oxy)-1H-indole] was tested, and the pIC50 [1] was 6.05, the pIC50 [2] was 8.19 and the pIC50 [3] was 7.82.

In the case of Cc1c(-c2[nH]c3ccc(OC4CCN(CC(=O)N(C)C)CC4)cc3c2C(C)C)cn(C)c(=O)c1C [Example 87, 2-(4-((3-isopropyl-2-(1,4,5-trimethyl-6-oxo-1,6-dihydropyridin-3-yl)-1H-indol-5-yl)oxy)piperidin-1-yl)-N,N-dimethylacetamide], the pIC50 [1] was 4.71, the pIC50 [2] was 8.24 and the pIC50 [3] was 7.48.

For Cc1cc(-c2[nH]c3ccc(O[C@H]4CCCN(C5CCOCC5)C4)cc3c2C(C)C)cn(C)c1=O [Example 40, (S)-5-(3-isopropyl-5-((1-(tetrahydro-2H-pyran-4-yl)piperidin-3-yl)oxy)-1H-indol-2-yl)-1,3-dimethylpyridin-2(1H)-one], the pIC50 [1] was 5.28, the pIC50 [2] was 7.97 and the pIC50 [3] was 7.80.

Cc1cc(-c2[nH]c3ccc(OC4CCN(C5CCOCC5)CC4)cc3c2C(C)C)cn2ncnc12 [Example 68, 6-(3-isopropyl-5-((1-(tetrahydro-2H-pyran-4-yl)piperidin-4-yl)oxy)-1H-indol-2-yl)-8-methyl-[1,2,4]triazolo[1,5-a]pyridine] was tested, and the pIC50 [1] was 5.64, the pIC50 [2] was 8.77 and the pIC50 [3] was 8.23.

Work on Cc1cc(-c2[nH]c3ccc(OC4CCN(C(=O)CN(C)C)CC4)cc3c2C(C)C)cn(C)c1=O [Example 100, 5-(5-((1-(dimethylglycyl)piperidin-4-yl)oxy)-3-isopropyl-1H-indol-2-yl)-1,3-dimethylpyridin-2(1H)-one] yielded a pIC50 [1] of 5.01, a pIC50 [2] of 7.98 and a pIC50 [3] of 8.39.

Cc1cc(-c2[nH]c3ccc(OCC4CCNCC4)cc3c2C(C)C)ccn1 [Example 156] showed a pIC50 [1] of 6.14, a pIC50 [2] of 8.49 and a pIC50 [3] of 7.89.

Work on Cc1cc(-c2[nH]c3ccc(OC4CCN(C5CCN(C(C)C)CC5)CC4)cc3c2C(C)C)ccn1 [Example 195, 3-isopropyl-5-((1′-isopropyl-[1,4′-bipiperidin]-4-yl)oxy)-2-(2-methylpyridin-4-yl)-1H-indole] yielded a pIC50 [1] of 7.24, a pIC50 [2] of 9.22 and a pIC50 [3] of 8.22.

Work on Cc1cc(-c2[nH]c3ccc(OCC(=O)NC4CCC5CNCC54)cc3c2C(C)C)ccn1 (stereo not drawn) [Example 142, 2-((3-isopropyl-2-(2-methylpyridin-4-yl)-1H-indol-5-yl)oxy)-N-(octahydrocyclopenta[c]pyrrol-4-yl)acetamide] yielded a pIC50 [1] of 6.42, a pIC50 [2] of 7.11 and a pIC50 [3] of 6.46.

Molecule Cc1cc(-c2[nH]c3ccc(OC4CCN(CC(=O)N(C)C)CC4)cc3c2C(C)C)cc(C)n1 [Example 79, 2-(4-((2-(2,6-dimethylpyridin-4-yl)-3-isopropyl-1H-indol-5-yl)oxy)piperidin-1-yl)-N,N-dimethylacetamide] has a pIC50 [1] of 6.35, a pIC50 [2] of 8.49 and a pIC50 [3] of 8.10.

COc1ccc(-c2[nH]c3ccc(OCCN4CCOCC4)cc3c2C(C)C)cc1OC [Example 173, 4-(2-((2-(3,4-dimethoxyphenyl)-3-isopropyl-1H-indol-5-yl)oxy)ethyl)morpholine] was tested, and the pIC50 [1] was 5.30, the pIC50 [2] was 7.20 and the pIC50 [3] was 6.17.

Work on Cc1c(-c2[nH]c3ccc(OC4CCN(C(C)C)CC4)cc3c2C(C)C)cn2cnnc2c1C [Example 57, 6-(3-isopropyl-5-((1-isopropylpiperidin-4-yl)oxy)-1H-indol-2-yl)-7,8-dimethyl-[1,2,4]triazolo[4,3-a]pyridine] yielded a pIC50 [1] of 4.73, a pIC50 [2] of 7.84 and a pIC50 [3] of 7.47.

Molecule Cc1cc(-c2[nH]c3ccc(OCC4CCNCC4)cc3c2C(C)C)cn2ncnc12 [Example 12, 6-(3-isopropyl-5-(piperidin-4-ylmethoxy)-1H-indol-2-yl)-8-methyl-[1,2,4] triazolo[1,5-a]pyridine] has a pIC50 [1] of 5.96, a pIC50 [2] of 8.52 and a pIC50 [3] of 9.52.
